Source: PMC6409085, “Three odorant-binding proteins are involved in the behavioral response of Sogatella furcifera to rice plant volatiles” (PeerJ, 2019)
“And” between values parts separate entries of the source, which are not always exact repeats. Equal values may be shown once.

Legend:
S. furcifera adults = assay: Y-tube olfactometer behavioral trials; type: in vivo, Sogatella furcifera; conditions: odorant 50 µL/L vs hexane
Outline: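 Single S. furcifera adults (2 days post-emergence, starved 0.5 h) chose between odorant (100 µL of 50 µL/L on filter paper) and hexane control in a glass Y-tube, charcoal-filtered humidified air 300 mL/min per arm, 25 ± 1 °C, 50% RH. Choice scored if insect passed half an arm and stayed >1 min within 10 min; 45 insects per compound, chi-squared test.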

SfurOBP3 = SfurOBP3 (Sogatella furcifera, UniProt V5T818); assay: biochemical; type: binding; conditions: for Fluorescence competitive binding assay, fluorescence intensity: OBP3, three replicate columns
SfurOBP3, sequence (V5T818 entry or part of it): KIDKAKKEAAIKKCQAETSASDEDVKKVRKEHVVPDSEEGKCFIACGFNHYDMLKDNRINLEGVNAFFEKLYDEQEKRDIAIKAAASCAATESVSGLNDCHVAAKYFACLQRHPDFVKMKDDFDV
Outline: (§1)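 First, 2.0 µM protein in 50 mM Tris-HCl (pH 7.4) was titrated with 1-NPN to obtain K1-NPN. Then odorants (2–20 µM final) competed against 2.0 µM 1-NPN, with fluorescence (ex 337 nm) recorded after 2 min. Ki was computed from IC50 via Ki = IC50/(1 + [1-NPN]/K1-NPN).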

SfurOBP11 = SfurOBP11 (Sogatella furcifera, UniProt V5T6E3); assay: biochemical; type: binding
SfurOBP11, sequence (V5T6E3 entry or part of it): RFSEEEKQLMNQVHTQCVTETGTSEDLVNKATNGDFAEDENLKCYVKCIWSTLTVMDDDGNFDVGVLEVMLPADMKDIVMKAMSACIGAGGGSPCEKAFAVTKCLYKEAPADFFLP
Outline: as §1

SfurOBP1 = SfurOBP1 (Sogatella furcifera, UniProt V5T8N5); assay: biochemical; type: binding; conditions: for Fluorescence competitive binding assay, fluorescence intensity: OBP1, three replicate columns
SfurOBP1, sequence (V5T8N5 entry or part of it): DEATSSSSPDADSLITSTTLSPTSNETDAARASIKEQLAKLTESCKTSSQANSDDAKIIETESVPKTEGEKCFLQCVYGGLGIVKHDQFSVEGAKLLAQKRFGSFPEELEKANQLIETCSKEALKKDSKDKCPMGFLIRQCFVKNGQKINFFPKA
Outline: as §1

SfurOBP2 = SfurOBP2 (Sogatella furcifera, UniProt V5T759); assay: biochemical; type: binding
SfurOBP2, sequence (V5T759 entry or part of it): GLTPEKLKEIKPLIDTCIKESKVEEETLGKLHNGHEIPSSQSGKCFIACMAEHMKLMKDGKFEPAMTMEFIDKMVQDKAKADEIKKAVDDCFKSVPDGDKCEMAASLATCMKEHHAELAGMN
Outline: as §1

C=C(C)C1CC=C(C)CC1 (single isomer, unassigned; (+)) [(+)-limonene]
behavioral response of S. furcifera (in words) (S. furcifera adults): strongly attracted | number of insects choosing hexane arm (S. furcifera adults; adults): 7 | number of insects choosing volatilies arm (S. furcifera adults; adults): 16 | number of insects failed (no choice) (S. furcifera adults; adults): 17 | Fluorescence competitive binding assay, fluorescence intensity (SfurOBP3; ligand concentration 2): 51848 and 49151 and 50500 | Fluorescence competitive binding assay, fluorescence intensity (SfurOBP3; ligand concentration 4): 50802 and 50041 and 48259 | Fluorescence competitive binding assay, fluorescence intensity (SfurOBP3; ligand concentration 6): 50158 and 49686 and 49223 | Fluorescence competitive binding assay, fluorescence intensity (SfurOBP3; ligand concentration 8): 48228 and 50693 and 49450 | Fluorescence competitive binding assay, fluorescence intensity (SfurOBP3; ligand concentration 10): 46402 and 47349 and 46178 | Fluorescence competitive binding assay, fluorescence intensity (SfurOBP3; ligand concentration 12): 39434 and 38976 and 40288 | Fluorescence competitive binding assay, fluorescence intensity (SfurOBP3; ligand concentration 14): 38805 and 38818 and 38804 | Fluorescence competitive binding assay, fluorescence intensity (SfurOBP3; ligand concentration 16): 34272 and 34325 and 34139 | Fluorescence competitive binding assay, fluorescence intensity (SfurOBP3; ligand concentration 18): 33102 and 34070 and 35044 | Fluorescence competitive binding assay, fluorescence intensity (SfurOBP3; ligand concentration 20): 32236 and 31361 and 31799 | IC50 (SfurOBP3; SfurOBP3, protein and 1-NPN both 2.0 µM, competitor 2-20 µM, read-out: IC50): > 20 µM | IC50 (SfurOBP11; SfurOBP11, protein and 1-NPN both 2.0 µM, competitor 2-20 µM, read-out: IC50): > 20 µM | Fluorescence intensity, fluorescence competitive binding assay, OBP11 (SfurOBP11; ligand concentration 2, replicate 1): 20185 | Fluorescence intensity, fluorescence competitive binding assay, OBP11 (SfurOBP11; ligand concentration 2, replicate 2): 20635 | Fluorescence intensity, fluorescence competitive binding assay, OBP11 (SfurOBP11; ligand concentration 2, replicate 3): 20374 | Fluorescence intensity, fluorescence competitive binding assay, OBP11 (SfurOBP11; ligand concentration 4, replicate 1): 19119 | Fluorescence intensity, fluorescence competitive binding assay, OBP11 (SfurOBP11; ligand concentration 4, replicate 2): 21150 | Fluorescence intensity, fluorescence competitive binding assay, OBP11 (SfurOBP11; ligand concentration 4, replicate 3): 19404 | Fluorescence intensity, fluorescence competitive binding assay, OBP11 (SfurOBP11; ligand concentration 6, replicate 1): 20124 | Fluorescence intensity, fluorescence competitive binding assay, OBP11 (SfurOBP11; ligand concentration 6, replicate 2): 20072 | Fluorescence intensity, fluorescence competitive binding assay, OBP11 (SfurOBP11; ligand concentration 6, replicate 3): 19868 | Fluorescence intensity, fluorescence competitive binding assay, OBP11 (SfurOBP11; ligand concentration 8, replicate 1): 18585 | Fluorescence intensity, fluorescence competitive binding assay, OBP11 (SfurOBP11; ligand concentration 8, replicate 2): 21246 | Fluorescence intensity, fluorescence competitive binding assay, OBP11 (SfurOBP11; ligand concentration 8, replicate 3): 19916 | Fluorescence intensity, fluorescence competitive binding assay, OBP11 (SfurOBP11; ligand concentration 10, replicate 1): 19564 | Fluorescence intensity, fluorescence competitive binding assay, OBP11 (SfurOBP11; ligand concentration 10, replicate 2): 19568 | Fluorescence intensity, fluorescence competitive binding assay, OBP11 (SfurOBP11; ligand concentration 10, replicate 3): 19649 | Fluorescence intensity, fluorescence competitive binding assay, OBP11 (SfurOBP11; ligand concentration 12, replicate 1): 19387 | Fluorescence intensity, fluorescence competitive binding assay, OBP11 (SfurOBP11; ligand concentration 12, replicate 2): 19954 | Fluorescence intensity, fluorescence competitive binding assay, OBP11 (SfurOBP11; ligand concentration 12, replicate 3): 20491 | Fluorescence intensity, fluorescence competitive binding assay, OBP11 (SfurOBP11; ligand concentration 14, replicate 1): 19217 | Fluorescence intensity, fluorescence competitive binding assay, OBP11 (SfurOBP11; ligand concentration 14, replicate 2): 19676 | Fluorescence intensity, fluorescence competitive binding assay, OBP11 (SfurOBP11; ligand concentration 14, replicate 3): 19052 | Fluorescence intensity, fluorescence competitive binding assay, OBP11 (SfurOBP11; ligand concentration 16, replicate 1): 18294 | Fluorescence intensity, fluorescence competitive binding assay, OBP11 (SfurOBP11; ligand concentration 16, replicate 2): 18202 | Fluorescence intensity, fluorescence competitive binding assay, OBP11 (SfurOBP11; ligand concentration 16, replicate 3): 18385 | Fluorescence intensity, fluorescence competitive binding assay, OBP11 (SfurOBP11; ligand concentration 18, replicate 1): 17514 | Fluorescence intensity, fluorescence competitive binding assay, OBP11 (SfurOBP11; ligand concentration 18, replicate 2): 18012 | Fluorescence intensity, fluorescence competitive binding assay, OBP11 (SfurOBP11; ligand concentration 18, replicate 3): 18287 | Fluorescence intensity, fluorescence competitive binding assay, OBP11 (SfurOBP11; ligand concentration 20, replicate 1): 16634 | Fluorescence intensity, fluorescence competitive binding assay, OBP11 (SfurOBP11; ligand concentration 20, replicate 2): 17062 | Fluorescence intensity, fluorescence competitive binding assay, OBP11 (SfurOBP11; ligand concentration 20, replicate 3): 17452 | Fluorescence competitive binding assay, fluorescence intensity (SfurOBP1; ligand concentration 2 (μM)): 5110 and 5104 and 5112 | Fluorescence competitive binding assay, fluorescence intensity (SfurOBP1; ligand concentration 4 (μM)): 5716 and 6377 and 5308 | Fluorescence competitive binding assay, fluorescence intensity (SfurOBP1; ligand concentration 6 (μM)): 6462 and 7662 and 6319 | Fluorescence competitive binding assay, fluorescence intensity (SfurOBP1; ligand concentration 8 (μM)): 6113 and 5754 and 14807 | Fluorescence competitive binding assay, fluorescence intensity (SfurOBP1; ligand concentration 10 (μM)): 5995 and 6375 and 7413 | Fluorescence competitive binding assay, fluorescence intensity (SfurOBP1; ligand concentration 12 (μM)): 5970 and 7970 and 8226 | Fluorescence competitive binding assay, fluorescence intensity (SfurOBP1; ligand concentration 14 (μM)): 5770 and 8418 and 5488 | Fluorescence competitive binding assay, fluorescence intensity (SfurOBP1; ligand concentration 16 (μM)): 4972 and 5953 and 5038 | Fluorescence competitive binding assay, fluorescence intensity (SfurOBP1; ligand concentration 18 (μM)): 6525 and 7403 and 8592 | Fluorescence competitive binding assay, fluorescence intensity (SfurOBP1; ligand concentration 20 (μM)): 7343 and 8136 and 7739 | IC50 (SfurOBP1; SfurOBP1, protein and 1-NPN both 2.0 µM, competitor 2-20 µM, read-out: IC50): > 20 µM | IC50 (SfurOBP2; SfurOBP2, protein and 1-NPN both 2.0 µM, competitor 2-20 µM, read-out: IC50): > 20 µM | Fluorescence competitive binding assay, OBP2 (raw fluorescence reading) (SfurOBP2; ligand concentration 2 (unit not given), replicate column 1 of 3): 18785 | Fluorescence competitive binding assay, OBP2 (raw fluorescence reading) (SfurOBP2; ligand concentration 2 (unit not given), replicate column 2 of 3): 17646 | Fluorescence competitive binding assay, OBP2 (raw fluorescence reading) (SfurOBP2; ligand concentration 2 (unit not given), replicate column 3 of 3): 18955 | Fluorescence competitive binding assay, OBP2 (raw fluorescence reading) (SfurOBP2; ligand concentration 4 (unit not given), replicate column 1 of 3): 19168 | Fluorescence competitive binding assay, OBP2 (raw fluorescence reading) (SfurOBP2; ligand concentration 4 (unit not given), replicate column 2 of 3): 18029 | Fluorescence competitive binding assay, OBP2 (raw fluorescence reading) (SfurOBP2; ligand concentration 4 (unit not given), replicate column 3 of 3): 18599 | Fluorescence competitive binding assay, OBP2 (raw fluorescence reading) (SfurOBP2; ligand concentration 6 (unit not given), replicate column 1 of 3): 18726 | Fluorescence competitive binding assay, OBP2 (raw fluorescence reading) (SfurOBP2; ligand concentration 6 (unit not given), replicate column 2 of 3): 17846 | Fluorescence competitive binding assay, OBP2 (raw fluorescence reading) (SfurOBP2; ligand concentration 6 (unit not given), replicate column 3 of 3): 18376 | Fluorescence competitive binding assay, OBP2 (raw fluorescence reading) (SfurOBP2; ligand concentration 8 (unit not given), replicate column 1 of 3): 17673 | Fluorescence competitive binding assay, OBP2 (raw fluorescence reading) (SfurOBP2; ligand concentration 8 (unit not given), replicate column 2 of 3): 18323 | Fluorescence competitive binding assay, OBP2 (raw fluorescence reading) (SfurOBP2; ligand concentration 8 (unit not given), replicate column 3 of 3): 17474 | Fluorescence competitive binding assay, OBP2 (raw fluorescence reading) (SfurOBP2; ligand concentration 10 (unit not given), replicate column 1 of 3): 16329 | Fluorescence competitive binding assay, OBP2 (raw fluorescence reading) (SfurOBP2; ligand concentration 10 (unit not given), replicate column 2 of 3): 16489 | Fluorescence competitive binding assay, OBP2 (raw fluorescence reading) (SfurOBP2; ligand concentration 10 (unit not given), replicate column 3 of 3): 16675 | Fluorescence competitive binding assay, OBP2 (raw fluorescence reading) (SfurOBP2; ligand concentration 12 (unit not given), replicate column 1 of 3): 16493 | Fluorescence competitive binding assay, OBP2 (raw fluorescence reading) (SfurOBP2; ligand concentration 12 (unit not given), replicate column 2 of 3): 16176 | Fluorescence competitive binding assay, OBP2 (raw fluorescence reading) (SfurOBP2; ligand concentration 12 (unit not given), replicate column 3 of 3): 16335 | Fluorescence competitive binding assay, OBP2 (raw fluorescence reading) (SfurOBP2; ligand concentration 14 (unit not given), replicate column 1 of 3): 13873 | Fluorescence competitive binding assay, OBP2 (raw fluorescence reading) (SfurOBP2; ligand concentration 14 (unit not given), replicate column 2 of 3): 13950 | Fluorescence competitive binding assay, OBP2 (raw fluorescence reading) (SfurOBP2; ligand concentration 14 (unit not given), replicate column 3 of 3): 13912 | Fluorescence competitive binding assay, OBP2 (raw fluorescence reading) (SfurOBP2; ligand concentration 16 (unit not given), replicate column 1 of 3): 12506 | Fluorescence competitive binding assay, OBP2 (raw fluorescence reading) (SfurOBP2; ligand concentration 16 (unit not given), replicate column 2 of 3): 13445 | Fluorescence competitive binding assay, OBP2 (raw fluorescence reading) (SfurOBP2; ligand concentration 16 (unit not given), replicate column 3 of 3): 12627 | Fluorescence competitive binding assay, OBP2 (raw fluorescence reading) (SfurOBP2; ligand concentration 18 (unit not given), replicate column 1 of 3): 13201 | Fluorescence competitive binding assay, OBP2 (raw fluorescence reading) (SfurOBP2; ligand concentration 18 (unit not given), replicate column 2 of 3): 13156 | Fluorescence competitive binding assay, OBP2 (raw fluorescence reading) (SfurOBP2; ligand concentration 18 (unit not given), replicate column 3 of 3): 13110 | Fluorescence competitive binding assay, OBP2 (raw fluorescence reading) (SfurOBP2; ligand concentration 20 (unit not given), replicate column 1 of 3): 12573 | Fluorescence competitive binding assay, OBP2 (raw fluorescence reading) (SfurOBP2; ligand concentration 20 (unit not given), replicate column 2 of 3): 13554 | Fluorescence competitive binding assay, OBP2 (raw fluorescence reading) (SfurOBP2; ligand concentration 20 (unit not given), replicate column 3 of 3): 12438
